Assay results: paper PMC7445967, “The Potential of Atractylodin-Loaded PLGA Nanoparticles as Chemotherapeutic for Cholangiocarcinoma” (Asian Pacific Journal of Cancer Prevention : APJCP, 2020)
Values after ≈ are worked out from the molar mass of the structure shown. Where two headings read alike, the source gives them in different places.

Legend:
[1] = tested on: CL-6 cholangiocarcinoma cell line; assay: MTT cytotoxicity assay, CL-6; conditions: for Cell viability: highest concentration (atractylodin 125 µg/mL, ALNPs-1 6,000 µg/mL), range
Method: (§1) Human cholangiocarcinoma (CCA) cell lines, CL-6 and HuCC-T1, and normal fibroblast cell line, OUMS-36T-1F, were used for cytotoxicity assay. CL-6 and HuCC-T1 cell lines were cultured in RPMI medium and OUMS-36T-1F cell line was cultured in DMEM medium. Both culture media were prepared as complete medium supplemented with 10% (v/v) FBS and 1% antibiotic-antimycotic solution (100 IU/mL). All cell cultures were maintained at 37°C under 5% CO2 atmosphere and 95% humidity ([…] 150i, Thermo scientific, MA, USA).
(§2) For cytotoxicity assay, the CCA and normal cell lines were exposed to various concentrations of ALNPs-1 (47-6,000 µg/mL, 100 µL each), blank NPs-1 (47-6,000 µg/mL, 100 µL each), atractylodin (1-125 µg/mL), 5-FU (positive control, 1-125 µg/mL), or serum-free medium (negative control) in a 96-well plate. Briefly, 8,000 cells (in 100 µL complete medium) were seeded into each well and pre-incubated at 37°C under 5% CO2 for 24 h. Viability of each cell following exposure to ALNPs-1, blank NPs-1, atractylodin, and 5-FU was determined by MTT assay at 24, 48, and 72 h of exposure (Chittasupho et al., 2017). Absorbance of cell suspension was measured at 550 nm using UV Absorbance Reader (Vario skan flash, Thermo Fisher scientific, MA, USA). Cell viability was calculated using the Equation (4):
(§3) Cell viability %=Absorbance of cell treated with sample/absorbance of negative control cells×100
(§4) IC50 (concentration that inhibits cell growth by 50%) of each compound in each cell line was determined using Graphpad Prism version 7.04 (GraphPad Software, CA, USA). Selectivity index (SI) was determined from the ratio of IC50 of ALNPs-1, atractylodin, or 5-FU in normal cell and CCA cell.

[2] = tested on: HuCC-T1 cholangiocarcinoma cell line; assay: MTT cytotoxicity assay, HuCC-T1; conditions: for Cell viability: highest concentration (atractylodin 125 µg/mL, ALNPs-1 6,000 µg/mL), range
Method: as §1, §2, §3, §4

[3] = tested on: OUMS-36T-1F normal fibroblast cell line; assay: MTT cytotoxicity assay, OUMS-36T-1F; conditions: for Cell viability: highest concentration (atractylodin 125 µg/mL, ALNPs-1 6,000 µg/mL), range
Method: as §1, §2, §3, §4

[4] = cited from earlier work
[5] = ratio of IC50 in normal cell (OUMS-36T-1F) and CL-6, 24 hours
[6] = ratio of IC50 in normal cell (OUMS-36T-1F) and CL-6, 48 hours
[7] = ratio of IC50 in normal cell (OUMS-36T-1F) and CL-6, 72 hours
[8] = ratio of IC50 in normal cell (OUMS-36T-1F) and HuCC-T1, 24 hours
[9] = ratio of IC50 in normal cell (OUMS-36T-1F) and HuCC-T1, 48 hours
[10] = ratio of IC50 in normal cell (OUMS-36T-1F) and HuCC-T1, 72 hours

## C/C=C/C#CC#C/C=C/c1ccco1 [Atractylodin]
[1]; CL-6, 24 h exposure, MTT
  IC50: 56.36 µg/mL (≈ 309 µM)
[1]; CL-6, 24 hours
  Cell viability: 24.38-33.56%
[1]; CL-6, 48 h exposure, MTT
  IC50: 37.66 µg/mL (≈ 207 µM)
[1]; CL-6, 48 hours
  Cell viability: 9.71-13.89%
[1]; CL-6, 72 h exposure, MTT
  IC50: 52.02 µg/mL (≈ 285 µM)
[1]; CL-6, 72 hours
  Cell viability: 9.12-10.27%
[1]; [5]
  Selectivity index (SI): 1.50
[1]; [6]
  Selectivity index (SI): 1.54
[1]; [7]
  Selectivity index (SI): 1.33
[2]; HuCC-T1, 24 h exposure, MTT
  IC50: 53.66 µg/mL (≈ 294 µM)
[2]; HuCC-T1, 24 hours
  Cell viability: 23.72-30.39%
[2]; HuCC-T1, 48 h exposure, MTT
  IC50: 59.74 µg/mL (≈ 328 µM)
[2]; HuCC-T1, 48 hours
  Cell viability: 16.18-17.18%
[2]; HuCC-T1, 72 h exposure, MTT
  IC50: 76.15 µg/mL (≈ 418 µM)
[2]; HuCC-T1, 72 hours
  Cell viability: 16.43-20.57%
[2]; [8]
  Selectivity index (SI): 1.57
[2]; [9]
  Selectivity index (SI): 0.97
[2]; [10]
  Selectivity index (SI): 0.91
[3]; OUMS-36-1F normal cells
  Concentrations producing cytotoxic effect against normal cells: 62.5 to 125 µg/mL
[3]; OUMS-36T-1F, 24 h exposure, MTT
  IC50: 84.33 µg/mL (≈ 463 µM)
[3]; OUMS-36T-1F, 24 hours
  Cell viability: 39.61-41.50%
[3]; OUMS-36T-1F, 48 h exposure, MTT
  IC50: 58.16 µg/mL (≈ 319 µM)
[3]; OUMS-36T-1F, 48 hours
  Cell viability: 14.88-15.37%
[3]; OUMS-36T-1F, 72 h exposure, MTT
  IC50: 69.03 µg/mL (≈ 379 µM)
[3]; OUMS-36T-1F, 72 hours
  Cell viability: 6.61-7.92%
[4]; free atractylodin, ref TGSC Information System, 2019
  Solubility in water: 7.541 µg/mL (≈ 41.4 µM)
[4]; soluble in organic solvents such as ethyl acetate, DMSO, acetone, ref ChemFaces, 2018
  Solubility in water: insoluble in water

## O=c1[nH]cc(F)c(=O)[nH]1 [5-FU, 5-fluorouracil]
[1]; Homo sapiens, 24 h
  IC50: 77.4 µg/mL (≈ 595 µM)
[1]; Homo sapiens, 48 h
  IC50: 38.8 µg/mL (≈ 299 µM)
[1]; Homo sapiens, 72 h
  IC50: 3.46 µg/mL (≈ 26.6 µM)
[1]; [5]
  Selectivity index (SI): 1.71
[1]; [6]
  Selectivity index (SI): 1.28
[1]; [7]
  Selectivity index (SI): 8.90
[2]; Homo sapiens, HuCCT-1, 24 h
  IC50: 38.9 µg/mL (≈ 299 µM)
[2]; Homo sapiens, HuCCT-1, 48 h
  IC50: 25.9 µg/mL (≈ 199 µM)
[2]; Homo sapiens, HuCCT-1, 72 h
  IC50: 8.2 µg/mL (≈ 63 µM)
[2]; [8]
  Selectivity index (SI): 3.41
[2]; [9]
  Selectivity index (SI): 1.92
[2]; [10]
  Selectivity index (SI): 3.75
[3]; Homo sapiens, Fibroblast, 24 h
  IC50: 133 µg/mL (≈ 1020 µM)
[3]; Homo sapiens, Fibroblast, 48 h
  IC50: 49.8 µg/mL (≈ 383 µM)
[3]; Homo sapiens, Fibroblast, 72 h
  IC50: 30.8 µg/mL (≈ 237 µM)
